The numbers were not newly measured in patent publication US9481672B2 (priority 2012, dated 2016), which cites them from elsewhere.

This series has as its system chymase. The following applies: hamsters, myocardial infarction model.

Regarding `CCOc1ccccc1CC1C(=O)N(C(=O)NC(c2ccc(C)cc2)c2ccc(C)cc2)C1Oc1ccc(C(=O)O)cc1` (stereo not drawn) [BCEAB], the chymase activity result is “reduced”, the haemodynamics result was “improved” and the mortality result is given as “reduced”.
